Reference: publication PMC10663540, “Structure-based discovery of dual pathway inhibitors for SARS-CoV-2 entry” (Nature Communications, 2023)
pIC50: −log10 of the molar value. Values joined by “and” are separate entries in the source; they are usually repeats but may differ in a detail not shown here. Equal values may be shown once. Read-outs that look alike come from different tables or passages of the source.

Legend:
in vitro = conditions: human
SARS-CoV-2 = format: cell-based; conditions: Supplementary Fig. 7b
Calu-3 cells = conditions: rep1-rep3
TMPRSS2 = TMPRSS2 (Homo sapiens, UniProt O15393); assay: biochemical; format: biochemical
human CTSB = target: T1, human CTSB (Homo sapiens, UniProt P07858); assay: biochemical
T1 construct: […]; made in house

human CTSL = target: T2, human CTSL (Homo sapiens, UniProt P07711); assay: FRET enzymatic inhibition assay of CTSL (IC50 measurement); format: biochemical
T2 construct: made in house

[1] = 0.0762939 nM, rep1-rep4, 7.62939e-05 µM
[2] = 1.2207 nM, rep1-rep4, 0.0012207 µM
[3] = 156.25 nM, rep1-rep4, 0.15625 µM
[4] = substrate Cbz-Phe-Arg-AMC, pH 5.5, mean ± SD, four replicates

TMPRSS2, sequence (O15393 256-492): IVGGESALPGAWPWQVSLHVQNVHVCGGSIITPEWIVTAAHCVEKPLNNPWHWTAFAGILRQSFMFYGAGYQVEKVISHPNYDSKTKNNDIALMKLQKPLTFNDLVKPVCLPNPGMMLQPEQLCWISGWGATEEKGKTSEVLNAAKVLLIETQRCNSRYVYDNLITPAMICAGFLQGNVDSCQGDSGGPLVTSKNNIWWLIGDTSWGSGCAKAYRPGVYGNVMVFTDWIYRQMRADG
TMPRSS2, sequence (O15393 other isoform, or with tags, fused parts or gaps): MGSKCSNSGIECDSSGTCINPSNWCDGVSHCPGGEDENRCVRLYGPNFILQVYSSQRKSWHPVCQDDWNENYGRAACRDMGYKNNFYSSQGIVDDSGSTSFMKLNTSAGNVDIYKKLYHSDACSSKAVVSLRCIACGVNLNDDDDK
T2 sequence (P07711 114-333): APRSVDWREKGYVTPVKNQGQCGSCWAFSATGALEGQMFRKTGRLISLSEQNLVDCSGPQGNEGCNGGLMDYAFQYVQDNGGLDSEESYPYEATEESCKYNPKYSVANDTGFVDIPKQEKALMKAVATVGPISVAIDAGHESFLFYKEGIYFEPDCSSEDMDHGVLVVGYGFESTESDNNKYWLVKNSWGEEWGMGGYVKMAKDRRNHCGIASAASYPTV

With `CN(C)C(=O)COC(=O)Cc1ccc(OC(=O)c2ccc(NC(=N)N)cc2)cc1` [Camostat] the CC50 (in vitro) was 173 µM, the Virus titer (SARS-CoV-2; Camostat 1.1 μM) was 7460 TCID50/ml and 6320 TCID50/ml and 12600 TCID50/ml and the Virus titer (SARS-CoV-2; Camostat 3.3 μM) was 26200 TCID50/ml and 15900 TCID50/ml and 20000 TCID50/ml. For the same molecule, the Cytotoxicity (Calu-3 cells; 0.0128 μM) was 0.76% and 0.62% and 0.69%, the Cytotoxicity (Calu-3 cells; 0.064 μM) was 2.27% and 2.13% and 2.46% and the Cytotoxicity (Calu-3 cells; 8 μM) was 7.46% and 7.33% and 7.34%. The Cytotoxicity (Calu-3 cells; 40 μM) was 10.06% and 10.11% and 10.29%, the Cytotoxicity (Calu-3 cells; 200 μM) was 58.17% and 58.19% and 58.30% and the Cytotoxicity (Calu-3 cells; 1000 μM) was 96.27% and 96.26% and 96.22%. The “Inhibition: TMPRSS2” value (TMPRSS2; 38.15 pM) was 2.63% and 1.07% and 2.97% and 3.20%, the “Inhibition: TMPRSS2” value (TMPRSS2; 76.29 pM) was 3.24% and 1.14% and 2.29% and 3.03% and the “Inhibition: TMPRSS2” value (TMPRSS2; 0.000152588 µM) was 4.34% and 0.64% and 2.45% and 2.60%. For the same molecule, the “Inhibition: TMPRSS2” value (TMPRSS2; 0.000305176 µM) was 3.31% and 1.96% and 3.39% and 4.38%, the “Inhibition: TMPRSS2” value (TMPRSS2; 0.000610352 µM) was 3.86% and 5.10% and 6.39% and the “Inhibition: TMPRSS2” value (TMPRSS2; 0.0012207 µM) was 7.07% and 9.81% and 8.80%. The “Inhibition: TMPRSS2” value (TMPRSS2; 0.00244141 µM) was 17.35% and 18.09% and 18.86%, the “Inhibition: TMPRSS2” value (TMPRSS2; 0.00488281 µM) was 31.26% and 30.95% and 31.85% and the “Inhibition: TMPRSS2” value (TMPRSS2; 0.00976562 µM) was 51.72% and 52.80% and 52.15%. For the same molecule, the “Inhibition: TMPRSS2” value (TMPRSS2; 0.0195312 µM) was 77.54% and 78.82% and 77.32%, the “Inhibition: TMPRSS2” value (TMPRSS2; 0.0390625 µM) was 94.79% and 94.98% and 94.57% and the “Inhibition: TMPRSS2” value (TMPRSS2; 0.078125 µM) was 99.75% and 99.96% and 99.42%. For the same molecule, the “Inhibition: TMPRSS2” value (TMPRSS2; 0.15625 µM) was 100.65% and 100.24%, the “Inhibition: TMPRSS2” value (TMPRSS2; 0.3125 µM) was 99.93% and 100.23% and 99.75% and the “Inhibition: TMPRSS2” value (TMPRSS2; 0.625 µM) was 100.21% and 100.53% and 100.35%. The “Inhibition: TMPRSS2” value (TMPRSS2; 1.25 µM) was 99.64% and 100.51%, the “Inhibition: TMPRSS2” value (TMPRSS2; 2.5 µM) was 100.23% and 100.42% and 100.20% and the “Inhibition: TMPRSS2” value (TMPRSS2; 5 µM) was 99.87% and 100.54% and 99.70%. For the same molecule, the inhibition at 0.000610352 µM (TMPRSS2; read-out: Inhibition: TMPRSS2) was 6.23%, the inhibition at 0.0012207 µM (TMPRSS2; read-out: Inhibition: TMPRSS2) was 9.58% and the inhibition at 0.00244141 µM (TMPRSS2; read-out: Inhibition: TMPRSS2) was 17.5%. It also gave an inhibition at 0.00488281 µM (TMPRSS2; read-out: Inhibition: TMPRSS2) of 31.5%, an inhibition at 0.00976562 µM (TMPRSS2; read-out: Inhibition: TMPRSS2) of 52.1% and an inhibition at 0.0195312 µM (TMPRSS2; read-out: Inhibition: TMPRSS2) of 77.3%. For the same molecule, the inhibition at 0.0390625 µM (TMPRSS2; read-out: Inhibition: TMPRSS2) was 94.7%, the inhibition at 0.078125 µM (TMPRSS2; read-out: Inhibition: TMPRSS2) was 99.7% and the inhibition at 0.15625 µM (TMPRSS2; read-out: Inhibition: TMPRSS2) was 100%. The inhibition at 0.3125 µM (TMPRSS2; read-out: Inhibition: TMPRSS2) was 100%, the inhibition at 0.625 µM (TMPRSS2; read-out: Inhibition: TMPRSS2) was 100% and the inhibition at 1.25 µM (TMPRSS2; read-out: Inhibition: TMPRSS2) was 100%. The inhibition at 2.5 µM (TMPRSS2; read-out: Inhibition: TMPRSS2) was 100% and the inhibition at 5 µM (TMPRSS2; read-out: Inhibition: TMPRSS2) was 100%.

For `CCOC(=O)C1OC1C(=O)NC(CC(C)C)C(=O)NCCC(C)C` (stereo not drawn) [E64d], the CC50 (in vitro) was over 1000 µM, the “Inhibition: CTSB” value (human CTSB; [1]) was 3.40% and 10.64% and 11.97% and 5.82% and the “Inhibition: CTSB” value (human CTSB; [2]) was -7.91% and 0.42% and 2.07% and 0.65%. The inhibition at 0.15625 µM (human CTSB; 156.25 nM, rep1-rep4) was 35.3%, the “Inhibition: CTSB” value (human CTSB; [3]) was 44.31% and 44.26% and 38.99% and the inhibition at 0.3125 µM (human CTSB; 312.5 nM, rep1-rep4) was 56.2%. The “Inhibition: CTSB” value (human CTSB; 312.5 nM, rep1-rep4, 0.3125 µM) was 62.85% and 55.87% and 62.55%, the inhibition at 0.625 µM (human CTSB; 625 nM, rep1-rep4) was 80.1% and the “Inhibition: CTSB” value (human CTSB; 625 nM, rep1-rep4, 0.625 µM) was 80.11% and 80.88% and 83.45%. The inhibition at 1.25 µM (human CTSB; 1250 nM, rep1-rep4) was 98.7%, the “Inhibition: CTSB” value (human CTSB; 1250 nM, rep1-rep4, 1.25 µM) was 92.94% and 89.91% and 97.77% and the inhibition at 2.5 µM (human CTSB; 2500 nM, rep1-rep4) was 95.4%. The “Inhibition: CTSB” value (human CTSB; 2500 nM, rep1-rep4, 2.5 µM) was 107.12% and 95.70% and 101.34%, the inhibition at 5 µM (human CTSB; 5000 nM, rep1-rep4) was 105% and the “Inhibition: CTSB” value (human CTSB; 5000 nM, rep1-rep4, 5 µM) was 104.22% and 97.92% and 95.52%. The inhibition at 10 µM (human CTSB; 10000 nM, rep1-rep4) was 97.9%, the “Inhibition: CTSB” value (human CTSB; 10000 nM, rep1-rep4, 10 µM) was 102.20% and 95.59% and 101.48% and the pIC50 (human CTSB; [4]) was 6.61. For the same molecule, the “Inhibition: CTSL” value (human CTSL; [1]) was 2.24% and 3.63% and 1.98% and 0.98%, the “Inhibition: CTSL” value (human CTSL; 0.152588 nM, rep1-rep4, 0.000152588 µM) was 2.65% and 3.08% and 2.24% and -1.44% and the “Inhibition: CTSL” value (human CTSL; 0.610352 nM, rep1-rep4, 0.000610352 µM) was 0.22% and 3.41%. The “Inhibition: CTSL” value (human CTSL; [2]) was 6.37% and 4.18%, the “Inhibition: CTSL” value (human CTSL; 2.44141 nM, rep1-rep4, 0.00244141 µM) was 4.98% and 7.04% and 0.43% and 3.83% and the “Inhibition: CTSL” value (human CTSL; 4.88281 nM, rep1-rep4, 0.00488281 µM) was 0.11% and 3.42% and 5.91% and 2.54%. For the same molecule, the “Inhibition: CTSL” value (human CTSL; 9.76562 nM, rep1-rep4, 0.00976562 µM) was 8.11% and 8.13% and 3.91% and 9.27%, the inhibition at 0.0195312 µM (human CTSL; 19.5312 nM, rep1-rep4) was 10.1% and the “Inhibition: CTSL” value (human CTSL; 19.5312 nM, rep1-rep4, 0.0195312 µM) was 17.79% and 9.24% and 15.72%. The inhibition at 0.0390625 µM (human CTSL; 39.0625 nM, rep1-rep4) was 26.6%, the “Inhibition: CTSL” value (human CTSL; 39.0625 nM, rep1-rep4, 0.0390625 µM) was 23.44% and 25.85% and 26.69% and the inhibition at 0.078125 µM (human CTSL; 78.125 nM, rep1-rep4) was 45.2%. The “Inhibition: CTSL” value (human CTSL; 78.125 nM, rep1-rep4, 0.078125 µM) was 44.64% and 44.43% and 46.07%, the inhibition at 0.15625 µM (human CTSL; 156.25 nM, rep1-rep4) was 72.7% and the “Inhibition: CTSL” value (human CTSL; [3]) was 70.94% and 71.67% and 71.32%. The inhibition at 0.3125 µM (human CTSL; 312.5 nM, rep1-rep4) was 93.6%, the “Inhibition: CTSL” value (human CTSL; 312.5 nM, rep1-rep4, 0.3125 µM) was 93.64% and 93.89% and 93.96% and the inhibition at 0.625 µM (human CTSL; 625 nM, rep1-rep4) was 99.2%. The “Inhibition: CTSL” value (human CTSL; 625 nM, rep1-rep4, 0.625 µM) was 99.81% and 99.40% and 99.47%, the inhibition at 1.25 µM (human CTSL; 1250 nM, rep1-rep4) was 100% and the “Inhibition: CTSL” value (human CTSL; 1250 nM, rep1-rep4, 1.25 µM) was 100.20% and 99.89%. For the same molecule, the inhibition at 2.5 µM (human CTSL; 2500 nM, rep1-rep4) was 99.2%, the “Inhibition: CTSL” value (human CTSL; 2500 nM, rep1-rep4, 2.5 µM) was 100.15% and 100.23% and 99.74% and the inhibition at 5 µM (human CTSL; 5000 nM, rep1-rep4) was 99.9%. For the same molecule, the “Inhibition: CTSL” value (human CTSL; 5000 nM, rep1-rep4, 5 µM) was 100.31% and 99.95%, the inhibition at 10 µM (human CTSL; 10000 nM, rep1-rep4) was 100% and the “Inhibition: CTSL” value (human CTSL; 10000 nM, rep1-rep4, 10 µM) was 100.02% and 99.97%. For the same molecule, the pIC50 (human CTSL; [4]) was 7.05, the Cytotoxicity (Calu-3 cells; 0.017 μM) was 7.45% and 7.84% and 8.16% and the Cytotoxicity (Calu-3 cells; 0.05 μM) was 11.45% and 12.03% and 11.72%. The Cytotoxicity (Calu-3 cells; 0.15 μM) was 9.87% and 10.28% and 10.63%, the Cytotoxicity (Calu-3 cells; 0.46 μM) was 7.15% and 7.70% and 8.12% and the Cytotoxicity (Calu-3 cells; 4.1 μM) was 1.63% and 2.06% and 2.63%. For the same molecule, the Cytotoxicity (Calu-3 cells; 12.3 μM) was -0.11% and 0.47% and 0.96%, the Cytotoxicity (Calu-3 cells; 111.1 μM) was -4.79% and -4.14% and -3.55% and the Cytotoxicity (Calu-3 cells; 333.3 μM) was 12.34% and 13.88% and 14.55%. The Cytotoxicity (Calu-3 cells; 1000 μM) was 23.12% and 23.57% and 24.06%.
